Experiments:
[1] = target: HIPK4 (Homo sapiens, UniProt Q8NE63); assay: SelectScreen kinase profiling, ZLYTE; format: biochemical; details: HIPK4, 10 µM
[2] = target: BRSK2 (Homo sapiens, UniProt Q8IWQ3); assay: SelectScreen kinase profiling, LanthaScreen binding; details: BRSK2, 10 µM
[3] = target: HIPK3 (YAK1) (Homo sapiens, UniProt Q9H422); assay: SelectScreen kinase profiling, ZLYTE; format: biochemical
[4] = target: MET D1228H (Homo sapiens, UniProt P08581, D1228H); assay: SelectScreen kinase profiling, LanthaScreen binding
[5] = target: DYRK3 (Homo sapiens, UniProt O43781); assay: SelectScreen kinase profiling, ZLYTE; format: biochemical; details: DYRK3, 10 µM
[6] = target: P450 2C19 (Homo sapiens, UniProt P33261)
[7] = target: ITK (Homo sapiens, UniProt Q08881); assay: SelectScreen kinase profiling, ZLYTE; format: biochemical
[8] = target: ALK T1151_L1152insT (Homo sapiens, UniProt Q9UM73, INS1151T); assay: SelectScreen kinase profiling, LanthaScreen binding
[9] = target: MATK (HYL) (Homo sapiens, UniProt P42679); assay: SelectScreen kinase profiling, ZLYTE; format: biochemical
MATK (HYL), sequence (P42679 whole entry): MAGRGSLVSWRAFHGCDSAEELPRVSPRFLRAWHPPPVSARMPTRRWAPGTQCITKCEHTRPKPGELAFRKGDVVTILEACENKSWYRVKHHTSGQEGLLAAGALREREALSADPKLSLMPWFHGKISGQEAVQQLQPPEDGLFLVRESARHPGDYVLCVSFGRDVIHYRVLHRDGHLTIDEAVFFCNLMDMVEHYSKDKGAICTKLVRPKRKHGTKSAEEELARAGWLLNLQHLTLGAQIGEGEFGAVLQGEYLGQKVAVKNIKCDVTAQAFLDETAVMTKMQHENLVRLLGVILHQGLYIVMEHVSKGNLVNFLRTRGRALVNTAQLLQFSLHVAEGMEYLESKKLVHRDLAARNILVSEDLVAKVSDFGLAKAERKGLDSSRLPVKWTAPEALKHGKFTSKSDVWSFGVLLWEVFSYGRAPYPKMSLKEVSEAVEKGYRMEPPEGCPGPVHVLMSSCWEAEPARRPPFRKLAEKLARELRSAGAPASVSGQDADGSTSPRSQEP

[10] = target: PDGFRA V561D (Homo sapiens, UniProt P16234, V561D); assay: SelectScreen kinase profiling, ZLYTE; format: biochemical
PDGFRA V561D, sequence (P16234 24-1089 V561D): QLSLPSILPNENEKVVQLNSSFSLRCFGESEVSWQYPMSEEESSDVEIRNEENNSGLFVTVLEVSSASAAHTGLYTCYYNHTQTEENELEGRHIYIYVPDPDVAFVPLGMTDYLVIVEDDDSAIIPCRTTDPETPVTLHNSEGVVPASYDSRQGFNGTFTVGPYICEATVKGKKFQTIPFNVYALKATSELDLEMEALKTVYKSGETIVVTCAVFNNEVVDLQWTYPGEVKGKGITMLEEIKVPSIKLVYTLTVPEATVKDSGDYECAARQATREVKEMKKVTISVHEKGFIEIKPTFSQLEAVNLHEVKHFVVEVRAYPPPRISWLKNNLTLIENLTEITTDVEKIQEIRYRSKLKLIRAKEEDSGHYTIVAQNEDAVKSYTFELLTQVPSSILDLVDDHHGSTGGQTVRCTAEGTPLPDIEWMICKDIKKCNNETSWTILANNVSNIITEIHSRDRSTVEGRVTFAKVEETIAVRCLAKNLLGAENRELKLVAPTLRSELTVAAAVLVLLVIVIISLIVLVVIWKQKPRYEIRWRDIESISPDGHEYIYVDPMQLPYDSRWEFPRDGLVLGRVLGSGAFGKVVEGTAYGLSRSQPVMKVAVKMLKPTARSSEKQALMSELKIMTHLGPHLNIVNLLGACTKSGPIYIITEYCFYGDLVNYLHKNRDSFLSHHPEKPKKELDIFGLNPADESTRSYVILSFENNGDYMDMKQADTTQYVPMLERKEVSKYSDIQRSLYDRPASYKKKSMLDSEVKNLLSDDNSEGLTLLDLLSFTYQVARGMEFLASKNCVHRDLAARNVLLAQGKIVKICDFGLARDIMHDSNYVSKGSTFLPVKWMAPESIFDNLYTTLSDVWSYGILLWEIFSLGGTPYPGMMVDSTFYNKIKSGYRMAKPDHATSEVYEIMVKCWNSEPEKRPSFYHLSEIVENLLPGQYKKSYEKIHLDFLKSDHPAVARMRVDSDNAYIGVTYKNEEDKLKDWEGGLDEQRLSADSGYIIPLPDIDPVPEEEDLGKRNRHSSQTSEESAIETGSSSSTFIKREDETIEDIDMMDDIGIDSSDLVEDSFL

[11] = target: FYN (Homo sapiens, UniProt P06241); assay: SelectScreen kinase profiling, ZLYTE; format: biochemical
[12] = target: KIT V559D V654A (Homo sapiens, UniProt P10721, V559D/V654A); assay: SelectScreen kinase profiling, ZLYTE; format: biochemical
KIT V559D V654A, sequence (P10721 26-976 V559D/V654A): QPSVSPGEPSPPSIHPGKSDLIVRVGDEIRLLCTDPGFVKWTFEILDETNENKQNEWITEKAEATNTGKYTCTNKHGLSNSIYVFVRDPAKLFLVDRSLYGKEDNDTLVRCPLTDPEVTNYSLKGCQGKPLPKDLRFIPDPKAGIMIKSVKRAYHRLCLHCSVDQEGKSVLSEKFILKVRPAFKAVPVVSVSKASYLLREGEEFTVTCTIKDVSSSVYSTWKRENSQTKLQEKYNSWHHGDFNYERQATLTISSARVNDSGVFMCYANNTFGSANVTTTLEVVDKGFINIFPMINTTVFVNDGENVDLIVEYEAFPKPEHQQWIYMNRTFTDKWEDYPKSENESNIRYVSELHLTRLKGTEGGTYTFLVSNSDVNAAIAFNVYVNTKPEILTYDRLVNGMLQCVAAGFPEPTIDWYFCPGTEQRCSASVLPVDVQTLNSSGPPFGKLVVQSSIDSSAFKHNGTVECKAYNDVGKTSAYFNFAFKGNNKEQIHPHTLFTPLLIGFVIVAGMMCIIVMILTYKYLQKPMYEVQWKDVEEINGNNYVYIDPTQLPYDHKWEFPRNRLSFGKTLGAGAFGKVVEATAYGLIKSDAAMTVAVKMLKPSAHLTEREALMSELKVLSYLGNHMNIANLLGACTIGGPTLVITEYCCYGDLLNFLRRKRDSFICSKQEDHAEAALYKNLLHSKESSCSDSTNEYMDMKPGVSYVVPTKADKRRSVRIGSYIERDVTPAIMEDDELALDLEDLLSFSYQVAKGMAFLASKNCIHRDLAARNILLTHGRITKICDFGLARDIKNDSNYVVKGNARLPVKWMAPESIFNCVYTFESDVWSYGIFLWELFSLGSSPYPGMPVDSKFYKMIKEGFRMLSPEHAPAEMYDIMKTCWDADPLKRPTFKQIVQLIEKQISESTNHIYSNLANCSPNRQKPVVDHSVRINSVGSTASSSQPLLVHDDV

[13] = target: LRRK2 (Homo sapiens, UniProt Q5S007); assay: SelectScreen kinase profiling, Adapta; format: biochemical; details: LRRK2, 10 µM
[14] = target: DDR2 (Homo sapiens, UniProt Q16832); assay: SelectScreen kinase profiling, LanthaScreen binding; details: DDR2, 10 µM
DDR2, sequence (Q16832 22-855): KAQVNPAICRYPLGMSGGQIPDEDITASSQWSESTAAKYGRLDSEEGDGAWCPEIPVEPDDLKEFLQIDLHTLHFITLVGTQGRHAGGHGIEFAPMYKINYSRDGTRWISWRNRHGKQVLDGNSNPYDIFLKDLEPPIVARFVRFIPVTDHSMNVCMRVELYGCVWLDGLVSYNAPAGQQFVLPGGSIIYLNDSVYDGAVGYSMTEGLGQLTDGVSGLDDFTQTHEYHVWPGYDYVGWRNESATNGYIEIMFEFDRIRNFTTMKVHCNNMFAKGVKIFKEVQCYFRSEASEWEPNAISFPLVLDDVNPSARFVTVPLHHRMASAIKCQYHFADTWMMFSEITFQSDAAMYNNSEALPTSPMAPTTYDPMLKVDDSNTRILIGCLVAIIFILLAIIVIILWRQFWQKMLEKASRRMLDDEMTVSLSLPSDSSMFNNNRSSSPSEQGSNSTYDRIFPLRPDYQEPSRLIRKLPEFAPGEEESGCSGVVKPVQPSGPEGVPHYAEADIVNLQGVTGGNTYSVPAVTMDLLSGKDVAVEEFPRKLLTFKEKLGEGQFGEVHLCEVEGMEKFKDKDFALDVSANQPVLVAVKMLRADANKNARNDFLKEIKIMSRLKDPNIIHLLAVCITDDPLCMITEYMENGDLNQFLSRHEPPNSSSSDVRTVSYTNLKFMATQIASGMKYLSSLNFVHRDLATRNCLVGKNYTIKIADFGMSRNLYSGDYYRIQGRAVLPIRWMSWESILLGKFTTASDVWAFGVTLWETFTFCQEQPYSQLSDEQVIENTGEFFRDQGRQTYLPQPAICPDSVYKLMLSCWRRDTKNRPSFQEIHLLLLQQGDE

[15] = target: RET A883F (Homo sapiens, UniProt P07949, A883F); assay: SelectScreen kinase profiling, ZLYTE; format: biochemical
[16] = target: CDK11/cyclin C (Homo sapiens, UniProt Q9BWU1); assay: SelectScreen kinase profiling, LanthaScreen binding
[17] = target: GSG2 (Haspin) (Homo sapiens, UniProt Q8TF76); assay: SelectScreen kinase profiling, Adapta; format: biochemical
[18] = target: IRAK3 (Homo sapiens, UniProt Q9Y616); assay: SelectScreen kinase profiling, LanthaScreen binding; details: IRAK3, 10 µM
[19] = target: DAPK1 (Homo sapiens, UniProt P53355); assay: SelectScreen kinase profiling, Adapta; format: biochemical; details: DAPK1, 10 µM
[20] = target: EPHB2 (Homo sapiens, UniProt P29323); assay: SelectScreen kinase profiling, ZLYTE; format: biochemical; details: EPHB2, 10 µM
[21] = target: PRKCB2 (PKC beta II) (Homo sapiens, UniProt P05771); assay: SelectScreen kinase profiling, ZLYTE; format: biochemical
[22] = target: MAP4K4 (HGK) (Homo sapiens, UniProt O95819); assay: SelectScreen kinase profiling, ZLYTE; format: biochemical
MAP4K4 (HGK), sequence (O95819 whole entry): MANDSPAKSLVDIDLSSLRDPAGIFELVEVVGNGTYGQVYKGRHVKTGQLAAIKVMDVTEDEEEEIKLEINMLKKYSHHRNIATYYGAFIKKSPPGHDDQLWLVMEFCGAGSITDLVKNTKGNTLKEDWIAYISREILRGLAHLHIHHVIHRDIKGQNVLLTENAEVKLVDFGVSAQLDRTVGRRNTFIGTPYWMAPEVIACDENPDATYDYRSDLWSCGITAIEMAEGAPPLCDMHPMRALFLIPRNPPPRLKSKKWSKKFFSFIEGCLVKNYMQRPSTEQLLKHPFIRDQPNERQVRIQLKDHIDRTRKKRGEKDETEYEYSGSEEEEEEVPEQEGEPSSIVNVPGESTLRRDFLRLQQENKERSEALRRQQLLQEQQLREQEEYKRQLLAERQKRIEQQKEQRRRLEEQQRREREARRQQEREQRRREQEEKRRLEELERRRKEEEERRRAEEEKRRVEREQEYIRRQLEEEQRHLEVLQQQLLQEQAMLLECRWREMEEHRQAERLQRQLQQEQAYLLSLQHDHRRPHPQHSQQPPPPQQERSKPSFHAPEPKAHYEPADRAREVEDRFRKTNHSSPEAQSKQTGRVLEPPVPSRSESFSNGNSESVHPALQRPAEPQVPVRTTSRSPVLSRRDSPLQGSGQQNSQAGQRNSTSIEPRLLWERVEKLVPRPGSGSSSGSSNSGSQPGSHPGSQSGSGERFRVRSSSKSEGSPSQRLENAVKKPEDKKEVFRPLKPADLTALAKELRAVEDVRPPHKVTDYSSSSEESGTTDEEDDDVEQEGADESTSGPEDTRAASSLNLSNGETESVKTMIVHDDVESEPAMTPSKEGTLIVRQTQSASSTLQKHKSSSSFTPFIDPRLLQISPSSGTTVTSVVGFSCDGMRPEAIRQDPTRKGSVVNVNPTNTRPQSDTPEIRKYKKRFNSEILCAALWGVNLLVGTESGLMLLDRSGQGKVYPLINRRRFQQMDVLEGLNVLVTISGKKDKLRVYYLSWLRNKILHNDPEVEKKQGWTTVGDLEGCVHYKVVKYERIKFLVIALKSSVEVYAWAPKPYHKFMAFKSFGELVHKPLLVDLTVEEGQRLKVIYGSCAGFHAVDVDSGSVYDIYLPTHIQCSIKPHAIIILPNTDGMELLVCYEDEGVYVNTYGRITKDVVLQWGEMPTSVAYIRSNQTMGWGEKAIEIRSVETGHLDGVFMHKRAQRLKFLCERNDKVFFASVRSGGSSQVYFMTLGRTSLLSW

[23] = target: CDK13/cyclin K (Homo sapiens, UniProt Q14004); assay: SelectScreen kinase profiling, LanthaScreen binding; details: read-out: % Inhibition Avg
[24] = target: CLK1 (Homo sapiens, UniProt P49759); assay: SelectScreen kinase profiling, ZLYTE; format: biochemical; details: CLK1, 10 µM
[25] = target: MAPK9 (JNK2) (Homo sapiens, UniProt P45984); assay: SelectScreen kinase profiling, ZLYTE; format: biochemical
[26] = target: MAP2K6 (MKK6) (Homo sapiens, UniProt P52564); assay: SelectScreen kinase profiling, LanthaScreen binding
[27] = target: AMPK A1/B1/G1 (Homo sapiens, UniProt Q13131); assay: SelectScreen kinase profiling, ZLYTE; format: biochemical; details: AMPK A1/B1/G1, 10 µM
[28] = target: BMPR1B (ALK6) (Homo sapiens, UniProt O00238); assay: SelectScreen kinase profiling, LanthaScreen binding
BMPR1B (ALK6), sequence (O00238 14-502): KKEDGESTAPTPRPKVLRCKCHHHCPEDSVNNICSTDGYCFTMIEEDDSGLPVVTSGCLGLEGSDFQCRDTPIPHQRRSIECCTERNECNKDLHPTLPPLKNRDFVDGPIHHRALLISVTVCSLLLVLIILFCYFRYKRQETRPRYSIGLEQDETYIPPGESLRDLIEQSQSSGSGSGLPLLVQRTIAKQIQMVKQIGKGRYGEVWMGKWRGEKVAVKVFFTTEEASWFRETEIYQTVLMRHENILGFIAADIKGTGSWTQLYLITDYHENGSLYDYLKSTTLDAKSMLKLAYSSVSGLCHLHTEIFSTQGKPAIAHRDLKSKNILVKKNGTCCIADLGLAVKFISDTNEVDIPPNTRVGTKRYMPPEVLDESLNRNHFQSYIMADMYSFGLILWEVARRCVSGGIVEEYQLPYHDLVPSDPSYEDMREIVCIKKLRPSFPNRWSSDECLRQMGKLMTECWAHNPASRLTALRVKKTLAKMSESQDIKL

[29] = target: KIT V560G (Homo sapiens, UniProt P10721, V560G); assay: SelectScreen kinase profiling, ZLYTE; format: biochemical
[30] = target: MYO3A (MYO3 alpha) (Homo sapiens, UniProt Q8NEV4); assay: SelectScreen kinase profiling, LanthaScreen binding
[31] = target: EPHA4 (Homo sapiens, UniProt P54764); assay: SelectScreen kinase profiling, ZLYTE; format: biochemical; details: EPHA4, 10 µM
[32] = target: PIP5K1A (Homo sapiens, UniProt Q99755); assay: SelectScreen kinase profiling, Adapta; format: biochemical
[33] = target: MYLK4 (Homo sapiens, UniProt Q86YV6); assay: SelectScreen kinase profiling, LanthaScreen binding; details: MYLK4, 10 µM

SMILES: O=C(c1ccc(/C=C/c2n[nH]c3ccccc23)cc1)N1CCNCC1 [KW-2449]
- inhibition at 10 µM [1]: 85%
- inhibition at 10 µM [2]: 7%
- inhibition at 10 µM [3]: 53%
- inhibition at 10 µM [4]: 75%
- inhibition at 10 µM [5]: 86%
- IC50 [6]: 9.41 µM
- inhibition at 10 µM [7]: 99%
- inhibition at 10 µM [8]: 26%
- inhibition at 10 µM [9]: 37%
- inhibition at 10 µM [10]: 97%
- inhibition at 10 µM [11]: 94%
- inhibition at 10 µM [12]: 77%
- inhibition at 10 µM [13]: 100%
- inhibition at 10 µM [14]: 53%
- inhibition at 10 µM [15]: 99%
- inhibition at 10 µM [16]: 53%
- inhibition at 10 µM [17]: 74%
- inhibition at 10 µM [18]: 31%
- inhibition at 10 µM [19]: 90%
- inhibition at 10 µM [20]: 95%
- inhibition at 10 µM [21]: 71%
- inhibition at 10 µM [22]: 98%
- inhibition at 10 µM [23]: 70%
- inhibition at 10 µM [24]: 99%
- inhibition at 10 µM [25]: 87%
- inhibition at 10 µM [26]: 56%
- inhibition at 10 µM [27]: 97%
- inhibition at 10 µM [28]: 90%
- inhibition at 10 µM [29]: 84%
- inhibition at 10 µM [30]: 59%
- inhibition at 10 µM [31]: 83%
- inhibition at 10 µM [32]: 16%
- inhibition at 10 µM [33]: 71%

— publication PMC6540285, “Evaluation of Protein Kinase Inhibitors with PLK4 Cross-Over Potential in a Pre-Clinical Model of Cancer” (International Journal of Molecular Sciences, 2019)
